ChEMBL document CHEMBL1201862, “PubChem BioAssay data set” (2004)
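These data come from cells grown in 96-well plates and exposed to compound for 48 hours at five concentrations. GI50 = concentration required for 50% inhibition of growth.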 Active and inactive are the calls of the source. Cut-off read from the data, not from the text of the source: active = GI50 up to about 1.1 µM and inactive = higher.

Key:
Assay in all cases: growth of human tumour cells (NCI), 48 h
786-0 = system: 786-0
A498 = system: A498
A549 = system: A549
ACHN = system: ACHN
BT-549 = system: BT-549
CAKI-1 = system: CAKI-1
CCRF-CEM = system: CCRF-CEM
COLO 205 = system: COLO 205
DU-145 = system: DU-145
EKVX = system: EKVX
HCC 2998 = system: HCC 2998
HCT-116 = system: HCT-116
HCT-15 = system: HCT-15
HL-60 = system: HL-60
HOP-62 = system: HOP-62
HOP-92 = system: HOP-92
HT-29 = system: HT-29
Hs-578T = system: Hs-578T
IGROV-1 = system: IGROV-1
K562 = system: K562
KM12 = system: KM12
LOX IMVI = system: LOX IMVI
M14 = system: M14
MCF7 = system: MCF7
MDA-MB-231 = system: MDA-MB-231
MDA-MB-435 = system: MDA-MB-435
MDA-N = system: MDA-N
MOLT-4 = system: MOLT-4
Malme-3M = system: Malme-3M
NCI-H226 = system: NCI-H226
NCI-H23 = system: NCI-H23
NCI-H460 = system: NCI-H460
NCI-H522 = system: NCI-H522
NCI/ADR-RES = system: NCI/ADR-RES
OVCAR-3 = system: OVCAR-3
OVCAR-4 = system: OVCAR-4
OVCAR-5 = system: OVCAR-5
OVCAR-8 = system: OVCAR-8
PC-3 = system: PC-3
RXF 393 = system: RXF 393
SF-268 = system: SF-268
SF-295 = system: SF-295
SF-539 = system: SF-539
SK-MEL-28 = system: SK-MEL-28
SK-MEL-2 = system: SK-MEL-2
SK-MEL-5 = system: SK-MEL-5
SK-OV-3 = system: SK-OV-3
SN12C = system: SN12C
SNB-19 = system: SNB-19
SNB-75 = system: SNB-75
SR = system: SR
SW-620 = system: SW-620
T47D = system: T47D
TK-10 = system: TK-10
U-251 = system: U-251
UACC-257 = system: UACC-257
UACC-62 = system: UACC-62
UO-31 = system: UO-31

c1ccc(N/N=C2\CC(c3ccccc3)Oc3ccccc32)cc1 (stereo not drawn)
GI50 (786-0): 24.3 µM (inactive)
GI50 (A498): 42.2 µM (inactive)
GI50 (A549): 53.7 µM (inactive)
GI50 (ACHN): 43.5 µM (inactive)
GI50 (BT-549): 39.8 µM (inactive)
GI50 (CAKI-1): 50.2 µM (inactive)
GI50 (CCRF-CEM): 33 µM (inactive)
GI50 (COLO 205): 67.8 µM (inactive)
GI50 (DU-145): 36 µM (inactive)
GI50 (EKVX): 21.9 µM (inactive)
GI50 (HCC 2998): 43.4 µM (inactive)
GI50 (HCT-116): 32.1 µM (inactive)
GI50 (HCT-15): 31 µM
GI50 (HL-60): 38.2 µM (inactive)
GI50 (HOP-62): 61 µM (inactive)
GI50 (HOP-92): 39.1 µM (inactive)
GI50 (HT-29): 32.4 µM (inactive)
GI50 (Hs-578T): 36.5 µM (inactive)
GI50 (IGROV-1): 22.6 µM (inactive)
GI50 (K562): 41.9 µM (inactive)
GI50 (KM12): 32.4 µM (inactive)
GI50 (LOX IMVI): 34.2 µM (inactive)
GI50 (M14): 42.6 µM (inactive)
GI50 (MCF7): 24 µM (inactive)
GI50 (MDA-MB-231): 49.3 µM (inactive)
GI50 (MDA-MB-435): 27.5 µM (inactive)
GI50 (MDA-N): 31.5 µM (inactive)
GI50 (MOLT-4): 28.4 µM (inactive)
GI50 (Malme-3M): > 100 µM (inactive)
GI50 (NCI-H226): > 100 µM (inactive)
GI50 (NCI-H23): 60.4 µM (inactive)
GI50 (NCI-H460): 45 µM (inactive)
GI50 (NCI-H522): 21.8 µM (inactive)
GI50 (NCI/ADR-RES): 43.1 µM (inactive)
GI50 (OVCAR-3): 34.5 µM (inactive)
GI50 (OVCAR-4): 46.2 µM (inactive)
GI50 (OVCAR-5): 46.1 µM (inactive)
GI50 (OVCAR-8): 39.6 µM (inactive)
GI50 (PC-3): 47.1 µM (inactive)
GI50 (RXF 393): 31.6 µM (inactive)
GI50 (SF-268): 35.8 µM (inactive)
GI50 (SF-295): 42.7 µM (inactive)
GI50 (SF-539): 37.6 µM (inactive)
GI50 (SK-MEL-28): > 100 µM (inactive)
GI50 (SK-MEL-2): 65.3 µM (inactive)
GI50 (SK-MEL-5): 40.8 µM (inactive)
GI50 (SK-OV-3): > 100 µM (inactive)
GI50 (SN12C): 36.2 µM (inactive)
GI50 (SNB-19): 35.9 µM (inactive)
GI50 (SNB-75): 22.9 µM (inactive)
GI50 (SR): 42.1 µM (inactive)
GI50 (SW-620): 30.5 µM (inactive)
GI50 (T47D): 26.4 µM (inactive)
GI50 (TK-10): 74.1 µM (inactive)
GI50 (U-251): 33.8 µM (inactive)
GI50 (UACC-257): 69.3 µM (inactive)
GI50 (UACC-62): 40.6 µM (inactive)
GI50 (UO-31): 22.1 µM (inactive)
